Active and inactive are the calls of the source. The rule behind the calls is not given here.
Legend:
Huh-7 [1] = experiment: Induction of apoptosis in human Huh-7 cells assessed as late apoptotic cells at 2 uM measured after 48 hrs by AnnexinV-FITC/PI staining based flow cytometry (reference value: 2.55%); assay type: functional
Huh-7 [2] = experiment: Inhibition of cell migration in human Huh-7 cells at 5 uM incubated for 24 hrs by wound healing assay relative to control; assay type: functional
[3] = Toxicity in NSG mouse assessed as effect on LDH level at 20 to 40 mg/kg […]; assay type: organism-based; conditions: in vivo, dose 20-40 mg/kg
[4] = Toxicity in NSG mouse assessed as effect on spleen at 20 to 40 mg/kg by H and E staining based analysis; assay type: organism-based; conditions: in vivo, dose 20-40 mg/kg
[5] = MRT (0 to t) in Sprague-Dawley rat at 2 mg/kg, iv by LC-MS/MS analysis; assay type: ADME, organism-based; conditions: in vivo
[6] = target: Fibroblast growth factor receptor 1 (Homo sapiens, UniProt P11362)
Description: Inhibition of FGFR1 (unknown origin)

Huh-7 [7] = experiment: Antitumor activity against human Huh-7 cells xenografted in ip dosed NSG mouse assessed as decrease in FGFR4 phosphorylation level administered twice per day for 2 weeks; assay type: functional, organism-based; conditions: dose 20-40 mg/kg
Huh-7 [8] = experiment: Antitumor activity against human Huh-7 cells xenografted in NSG mouse assessed as suppression of tumor growth at 20 mg/kg, ip administered twice per day for 2 weeks relative to control; assay type: functional
[9] = Observed clearance in Sprague-Dawley rat at 2 mg/kg, iv by LC-MS/MS analysis; assay type: ADME, organism-based; conditions: in vivo
[10] = Cmax in Sprague-Dawley rat at 10 mg/kg, po by LC-MS/MS analysis; assay type: ADME, organism-based; conditions: in vivo
[11] = Toxicity in NSG mouse assessed as effect on heart at 20 to 40 mg/kg by H and E staining based analysis; assay type: organism-based; conditions: in vivo, dose 20-40 mg/kg
Huh-7 [12] = experiment: Inhibition of colony formation in human Huh-7 cells assessed as reduction in number of colonies at 10 to 270 nM measured for 12 days; assay type: functional, cell-based; conditions: dose 10-270 nM, time 12.0 day
[13] = Toxicity in NSG mouse assessed as effect on ALB level at 20 to 40 mg/kg […]; assay type: organism-based; conditions: in vivo, dose 20-40 mg/kg
[14] = Toxicity in NSG mouse assessed as effect on ALP level at 20 to 40 mg/kg […]; assay type: organism-based; conditions: in vivo, dose 20-40 mg/kg

Chain of Fibroblast growth factor receptor 1 (P11362 whole entry): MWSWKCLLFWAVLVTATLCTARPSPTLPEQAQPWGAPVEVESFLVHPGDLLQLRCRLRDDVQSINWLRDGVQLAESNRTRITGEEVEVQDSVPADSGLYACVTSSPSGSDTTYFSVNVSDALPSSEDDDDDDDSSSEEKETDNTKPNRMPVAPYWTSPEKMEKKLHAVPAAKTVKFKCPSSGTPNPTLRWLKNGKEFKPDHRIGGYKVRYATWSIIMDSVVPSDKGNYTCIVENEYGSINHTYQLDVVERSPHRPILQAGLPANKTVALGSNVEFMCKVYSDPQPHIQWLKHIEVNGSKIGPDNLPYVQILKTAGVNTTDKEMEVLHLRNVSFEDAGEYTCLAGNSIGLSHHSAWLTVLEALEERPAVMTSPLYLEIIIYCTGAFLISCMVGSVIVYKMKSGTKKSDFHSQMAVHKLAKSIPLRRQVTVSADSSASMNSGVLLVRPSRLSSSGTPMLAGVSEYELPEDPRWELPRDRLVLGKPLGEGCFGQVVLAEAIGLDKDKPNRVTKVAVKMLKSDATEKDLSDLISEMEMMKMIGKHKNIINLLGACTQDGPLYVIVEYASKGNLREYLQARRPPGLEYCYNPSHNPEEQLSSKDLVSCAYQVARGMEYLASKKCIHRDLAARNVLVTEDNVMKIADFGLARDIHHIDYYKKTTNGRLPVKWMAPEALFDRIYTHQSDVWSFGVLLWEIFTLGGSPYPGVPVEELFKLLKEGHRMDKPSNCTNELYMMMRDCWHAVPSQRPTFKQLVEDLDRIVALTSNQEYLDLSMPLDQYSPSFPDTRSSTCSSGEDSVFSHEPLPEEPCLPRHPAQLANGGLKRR

## C=CC(=O)Nc1cc2c(cc1-c1n[nH]c3ccc(O[C@H](C)c4c(Cl)cncc4Cl)cc13)CCN(C)C2
Huh-7 [1]
  Activity: 11.39%
Huh-7 [2]
  inhibition at 5 µM: 90%
[3]
  Activity: Non-Toxic
[4]
  Activity: Non-Toxic
[5]
  MRT last: 1.55 h
[6]
  IC50: > 3 µM
Huh-7 [7]
  Activity: Dose-Dependent Effect
Huh-7 [8]
  Activity: 60.2%
[9]
  clearance: 174 mL/min/kg
[10]
  Cmax: 4.91 ng/mL
[11]
  Activity: Non-Toxic
Huh-7 [12]
  inhibition: Active
[13]
  Activity: Non-Toxic
[14]
  Activity: Non-Toxic

Source: ChEMBL document CHEMBL5620430, “Design, synthesis and biological evaluation of indazole derivatives as selective covalent inhibitors of FGFR4 in wild-type and gatekeeper mutants” (Eur J Med Chem, 2023)
